Drawing on US20240150287A1, “N-(BENZOYL)-PHENYLALANINE COMPOUND, PHARMACEUTICAL COMPOSITION CONTAINING SAME, AND USE THEREOF” (Hangzhou Apeloa Medicine Research Institute Co., Ltd., priority 2021, published 2024), this text covers IC50 for 11 compounds.

For orientation: IC50 means the concentration that inhibits the measured activity by half.

recombinant human integrin α4β7 (binding to recombinant human MAdCAM-1), sequence (P13612 34-970): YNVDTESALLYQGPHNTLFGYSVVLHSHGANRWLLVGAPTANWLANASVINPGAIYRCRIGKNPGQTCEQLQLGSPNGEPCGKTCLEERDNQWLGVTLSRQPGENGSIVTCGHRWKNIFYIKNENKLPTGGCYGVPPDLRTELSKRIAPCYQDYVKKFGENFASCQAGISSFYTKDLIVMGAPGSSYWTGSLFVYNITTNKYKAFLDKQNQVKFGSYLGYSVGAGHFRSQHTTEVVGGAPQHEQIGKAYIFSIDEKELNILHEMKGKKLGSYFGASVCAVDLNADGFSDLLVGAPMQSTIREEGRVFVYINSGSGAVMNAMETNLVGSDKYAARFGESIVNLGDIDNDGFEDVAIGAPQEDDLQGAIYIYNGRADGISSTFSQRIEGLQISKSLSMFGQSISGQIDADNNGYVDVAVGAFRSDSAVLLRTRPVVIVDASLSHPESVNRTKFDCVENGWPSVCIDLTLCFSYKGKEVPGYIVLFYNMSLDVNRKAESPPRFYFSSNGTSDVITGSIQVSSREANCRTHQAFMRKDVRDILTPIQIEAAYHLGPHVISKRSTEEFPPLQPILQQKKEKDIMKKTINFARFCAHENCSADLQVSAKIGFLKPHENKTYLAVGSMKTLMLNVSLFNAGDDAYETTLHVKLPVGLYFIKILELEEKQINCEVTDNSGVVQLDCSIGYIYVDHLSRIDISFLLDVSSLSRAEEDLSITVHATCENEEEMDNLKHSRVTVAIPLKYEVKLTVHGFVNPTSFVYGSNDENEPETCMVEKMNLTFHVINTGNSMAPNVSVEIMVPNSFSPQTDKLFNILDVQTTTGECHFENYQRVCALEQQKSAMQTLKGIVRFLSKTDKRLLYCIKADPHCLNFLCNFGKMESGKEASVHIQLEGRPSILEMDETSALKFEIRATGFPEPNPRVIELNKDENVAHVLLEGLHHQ
recombinant human integrin α4β7 (binding to recombinant human MAdCAM-1), sequence (P26010 20-723): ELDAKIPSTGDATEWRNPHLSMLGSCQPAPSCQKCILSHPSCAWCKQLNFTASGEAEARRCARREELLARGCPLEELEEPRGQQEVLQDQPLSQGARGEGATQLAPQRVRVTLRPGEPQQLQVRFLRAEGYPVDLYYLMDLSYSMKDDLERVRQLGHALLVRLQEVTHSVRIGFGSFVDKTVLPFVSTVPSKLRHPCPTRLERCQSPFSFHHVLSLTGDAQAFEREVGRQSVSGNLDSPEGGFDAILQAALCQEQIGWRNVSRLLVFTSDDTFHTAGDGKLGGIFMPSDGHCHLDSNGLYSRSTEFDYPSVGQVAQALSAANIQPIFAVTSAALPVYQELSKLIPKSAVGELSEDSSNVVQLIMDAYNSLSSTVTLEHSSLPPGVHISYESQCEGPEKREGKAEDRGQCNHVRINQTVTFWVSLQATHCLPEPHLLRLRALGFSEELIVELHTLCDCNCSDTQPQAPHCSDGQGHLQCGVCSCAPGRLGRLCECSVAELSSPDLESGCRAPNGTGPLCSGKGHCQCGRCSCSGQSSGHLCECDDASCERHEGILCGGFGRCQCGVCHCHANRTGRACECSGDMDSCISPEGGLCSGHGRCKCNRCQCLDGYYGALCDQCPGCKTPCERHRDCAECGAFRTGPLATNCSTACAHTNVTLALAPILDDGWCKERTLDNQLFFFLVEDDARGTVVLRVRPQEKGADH

The assay concerns the target recombinant human integrin α4β7 (binding to recombinant human MAdCAM-1) (Homo sapiens (Human), UniProt P13612+P26010). The experiment in a line: MAdCAM-1/α4β7 integrin binding inhibition activity evaluation test (α4β7-MAdCAM-1 ELISA). Particulars: plate-coated recombinant human MAdCAM-1, recombinant human α4β7, 2 h room temperature, free form of compound. The protocol: EXAMPLE: MADCAM-1/α4β7 INTEGRIN BINDING INHIBITION ACTIVITY EVALUATION TEST (α4β7-MADCAM-1 ELISA)
Coat the 96-well microplate (Costar) with 50 μL of recombinant human MAdCAM-1 (R&D Systems) solution per well, and incubate overnight (12-18 hours) at 4° C. Wash three times with 150 μL of TBS buffer per well. Block plate with 150 μL per well with blocking buffer for 1 h at 37° C. Wash three times with 150 μL of TBS buffer per well. Dilute the recombinant human integrin α4β7 (R&D Systems) with TBS buffer containing 0.1% bovine serum albumin (BSA), then add to the 96 well plate with 50 μL per well. Add 1 μL of test compound or DMSO, cover, incubate at room temperature for 2 h, wash three times with 150 μL of TBS buffer per well. Dilute the anti-β7 antibody (R&D Systems) with 0.1% BSA TBS buffer, then add to the 96 well plate with 50 μL per well, cover, incubate at room temperature for 1 h, wash three times with 150 μL of TBS buffer per well. Add 50 μL of streptavidin-HRP (R&D Systems) per well, incubate at room temperature for 20 min, wash three times with 150 μL of TBS buffer per well. Add 50 μL of TMB substrate solution (Sigma) per well, incubate at room temperature for 5-30 min, and add 25 μL of stop solution per well to stop the reaction. Finally, measure absorbance at 450 nm with microplate reader (SpectraMax 340PC. Molecular Devices). Repeat the test to find the binding rate of cells at each concentration when the absorbance of the well without the test substance is used as 100%, and calculate the concentration IC50 that causes 50% binding inhibition and summarize the results in Table 1.
It should be stated that, as a test compound, the free form of the compound synthesized in the above examples is used.
Background: An ELISA detects its analyte on a solid surface through an enzyme-linked reagent.
For `O=C(N[C@@H](Cc1ccc(-n2c(=O)n(C3CCOCC3)c3cccc(Cl)c32)cc1)C(=O)O)c1c(F)cccc1Cl` [Example 28, (S)-3-(4-(7-chloro-2-oxo-3-(tetrahydro-2H-pyran-4-yl)-2,3-dihydro-1H-benzo[d]imidazol-1-yl)phenyl)-2-(2-chloro-6-fluorobenzoylamino)propionic acid], the IC50 worked out at 10.9 nM. For `CN1CCC(n2c(=O)n(-c3ccc(C[C@H](NC(=O)c4c(F)cccc4Cl)C(=O)O)cc3)c3c(Cl)cccc32)CC1` [Example 29, (S)-3-(4-(7-chloro-3-(1-methylpiperidin-4-yl)-2-oxo-2,3-dihydro-1H-benzo[d]imidazol-1-yl)phenyl)-2-(2-chloro-6-fluorobenzoylamino)propionic acid], the IC50 was 18.1 nM. Then `Cn1c(=O)n(-c2ccc(C[C@H](NC(=O)c3c(F)cccc3Cl)C(=O)O)cc2)c2c(F)cc(F)cc21` [Example 31, (S)-2-(2-chloro-6-fluorobenzoylamino)-3-(4-(5,7-difluoro-3-methyl-2-oxo-2,3-dihydro-H-benzo[d]imidazol-1-yl)phenyl)propionic acid], with 5.34 nM; and `Cn1c(=O)n(-c2ccc(C[C@H](NC(=O)c3c(F)cccc3Cl)C(=O)O)cc2)c2cc(Cl)c(Cl)cc21` [Example 32, (S)-2-(2-chloro-6-fluorobenzoylamino)-3-(4-(5,6-dichloro-3-methyl-2-oxo-2,3-dihydro-H-benzo[d]imidazol-1-yl)phenyl)propionic acid], with 4.19 nM.

`Cn1c(=O)n(-c2ccc(C[C@H](NC(=O)c3c(F)cccc3Cl)C(=O)O)cc2)c2c(F)c(F)ccc21` [Example 33, (S)-2-(2-chloro-6-fluorobenzoylamino)-3-(4-(6,7-difluoro-3-methyl-2-exo-2,3-dihydro-1H-benzo[d]imidazol-1-yl)phenyl)propionic acid]: the IC50 was 2.7 nM. Turning to `Cn1c(=O)n(-c2ccc(C[C@H](NC(=O)c3c(F)cccc3Cl)C(=O)O)cc2)c2ccc(F)c(F)c21` [Example 34, (S)-2-(2-chloro-6-fluorobenzoylamino)-3-(4-(4,5-difluoro-3-methyl-2-oxo-2,3-dihydro-1H-benzo[d]imidazol-1-yl)phenyl)propionic acid], the IC50 was 10.5 nM. Take `COc1cccc2c1n(-c1ccc(C[C@H](NC(=O)c3c(F)cccc3Cl)C(=O)O)cc1)c(=O)n2C` [Example 35, (S)-2-(2-chloro-6-fluorobenzoylamino)-3-(4-(7-methoxy-3-methyl-2-oxo-2,3-dihydro-1H-benzo[d]imidazol-1-yl)phenyl)propionic acid]: the IC50 stood at 0.45 nM. As to `CN(C)c1ccc2c(c1)n(-c1ccc(C[C@H](NC(=O)c3c(F)cccc3Cl)C(=O)O)cc1)c(=O)n2C` [Example 36, (S)-2-(2-chloro-6-fluorobenzoylamino)-3-(4-(6-(dimethylamino)-3-methyl-2-oxo-2,3-dihydro-1H-benzo[d]imidazol-1-yl)phenyl)propionic acid], the IC50 was found to be 1.51 nM. Consider `CN(C)c1ccc2c(c1)n(C)c(=O)n2-c1ccc(C[C@H](NC(=O)c2c(F)cccc2Cl)C(=O)O)cc1` [Example 37, (S)-2-(2-chloro-6-fluorobenzoylamino)-3-(4-(5-(dimethylamino)-3-methyl-2-oxo-2,3-dihydro-1H-benzo[d]imidazol-1-yl)phenyl)propionic acid], for which the IC50 was 5.09 nM. Consider `Cn1c(=O)n(-c2ccc(C[C@H](NC(=O)c3c(Cl)cc(Cl)cc3Cl)C(=O)O)cc2)c2c(Cl)cccc21` [Example 38, (S)-3-(4-(7-chloro-3-methyl-2-oxo-2,3-dihydro-1H-benzo[d]imidazol-1-yl)phenyl)-2-(2,4,6-trichlorobenzamido)propionic acid], for which the IC50 worked out at 27.9 nM. With `Cn1c(=O)n(-c2ccc(C[C@H](NC(=O)c3c(Cl)cc(N4CCOCC4)cc3Cl)C(=O)O)cc2)c2c(Cl)cccc21` [Example 39], the IC50 was 3.65 nM.
